Data: US20250320224A1 (DOMAIN THERAPEUTICS, priority 2022, published 2025)

Biological target: T1, human PAR-2 (hPAR-2) receptor (Homo sapiens, UniProt P55085)
T1 construct: expressed in HEK-293 cells in an endogenous manner; endogenous in cells; host or cells: HEK-293
T1 sequence (P55085 26-397): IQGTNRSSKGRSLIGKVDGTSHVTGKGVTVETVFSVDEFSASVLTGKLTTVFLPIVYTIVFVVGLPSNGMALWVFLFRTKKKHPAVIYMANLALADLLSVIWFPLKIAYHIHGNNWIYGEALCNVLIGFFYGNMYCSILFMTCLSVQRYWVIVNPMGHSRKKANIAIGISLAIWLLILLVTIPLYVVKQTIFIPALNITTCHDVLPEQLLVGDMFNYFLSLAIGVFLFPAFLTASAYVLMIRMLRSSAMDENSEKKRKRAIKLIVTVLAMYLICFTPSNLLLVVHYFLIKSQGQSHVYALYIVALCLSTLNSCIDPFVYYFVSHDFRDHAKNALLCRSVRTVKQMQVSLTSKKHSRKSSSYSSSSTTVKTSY
Assay: In vitro human PAR-2 functional antagonist activity using calcium assays
Type: cell-based
Conditions: hPAR-2 endogenously expressed in HEK-293 cells; stimulated by 2-Furoyl-LIGRLO-NH2 peptide; Fluo4AM intracellular calcium, FLIPR Tetra
Outline: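 HEK-293 cells with endogenous hPAR-2 were loaded with Fluo4AM and read for intracellular Ca2+ on FLIPR. After 10 min with compound alone, cells were stimulated with 2-Furoyl-LIGRLO-NH2 at the concentration giving 80% of maximal response. Inhibition was then recorded over 5 min relative to buffer and agonist-only signals.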

Compound | IC50
O=C(O)CC1CCN(C(=O)c2ccc3c(n2)C2(CCC2)CN3c2ccc(Cl)c(F)c2)CC1 [Example 125, 2-(1-(1′-(4-chloro-3-fluorophenyl)-1′,2′-dihydrospiro[cyclobutane-1,3′-pyrrolo[3,2-b]pyridine]-5′-carbonyl)piperidin-4-yl)acetic acid] | 0.5 to 10 µM
CC1(C)C(=O)NCCN1C(=O)c1ccc2c(n1)C1(CCC1)CN2c1ccc(Cl)c(F)c1 [Example 126, 4-(1′-(4-chloro-3-fluorophenyl)-1′,2′-dihydrospiro[cyclobutane-1,3′-pyrrolo[3,2-b]pyridine]-5′-carbonyl)-3,3-dimethylpiperazin-2-one] | < 0.5 µM
CC1(C)CN(c2ccc(CC(=O)O)cn2)CCN1C(=O)c1ccc2c(n1)C1(CN2c2ccc(Cl)c(F)c2)CC(F)(F)C1 [Example 128, 2-(6-(4-(1′-(4-chloro-3-fluorophenyl)-3,3-difluoro-1′,2′-dihydrospiro[cyclobutane-1,3′-pyrrolo[3,2-b]pyridine]-5′-carbonyl)-3,3-dimethylpiperazin-1-yl)pyridin-3-yl)acetic acid] | < 0.5 µM
Cc1cc(N2CCN(C(=O)c3ccc(N4CC(C)(C)c5nc(C(=O)N6CCN(c7cc(C)c(C(=O)O)c(C)n7)CC6(C)C)ccc54)nc3)C(C)(C)C2)nc(C)c1C(=O)O [Example 133, 6-(4-(6-(5-(4-(5-carboxy-4,6-dimethylpyridin-2-yl)-2,2-dimethylpiperazine-1-carbonyl)-3,3-dimethyl-2,3-dihydro-1H-pyrrolo[3,2-b]pyridin-1-yl)nicotinoyl)-3,3-dimethylpiperazin-1-yl)-2,4-dimethylnicotinic acid] | > 10 µM
Cc1cc(N2CCN(C(=O)c3ccc4c(n3)C(C)(C)CN4c3ccc(Cl)cn3)C(C)(C)C2)nc(C)c1C(=O)O [Example 134, 6-(4-(1-(5-chloropyridin-2-yl)-3,3-dimethyl-2,3-dihydro-1H-pyrrolo[3,2-b]pyridine-5-carbonyl)-3,3-dimethylpiperazin-1-yl)-2,4-dimethylnicotinic acid] | < 0.5 µM
COC(=O)c1c(C)cc(N2CCN(C(=O)c3ccc4c(n3)C(C)(C)CN4c3ccccn3)C(C)(C)C2)nc1C [Example 135, methyl 6-(4-(3,3-dimethyl-1-(pyridin-2-yl)-2,3-dihydro-1H-pyrrolo[3,2-b]pyridine-5-carbonyl)-3,3-dimethylpiperazin-1-yl)-2,4-dimethylnicotinate] | 0.5 to 10 µM
COc1ncc(N2CCN(C(=O)c3ccc4c(n3)C(C)(C)CN4c3ccc(Cl)c(F)c3)C(C)(C)C2)cc1C(=O)O [Example 142, 5-(4-(1-(4-chloro-3-fluorophenyl)-3,3-dimethyl-2,3-dihydro-1H-pyrrolo[3,2-b]pyridine-5-carbonyl)-3,3-dimethylpiperazin-1-yl)-2-methoxynicotinic acid] | < 0.5 µM
CO[C@@H]1CCC2(C1)CN(c1ccc(Cl)c(F)c1)c1ccc(C(=O)N3CCN(c4cc(C)c(C(=O)O)c(C)n4)CC3(C)C)nc12 (stereo partly drawn) [Example 144, 6-(4-((3R)-1′-(4-chloro-3-fluorophenyl)-3-methoxy-1′,2′-dihydrospiro[cyclopentane-1,3′-pyrrolo[3,2-b]pyridine]-5′-carbonyl)-3,3-dimethylpiperazin-1-yl)-2,4-dimethylnicotinic acid] | < 0.5 µM
CO[C@H]1CCC2(C1)CN(c1ccc(Cl)c(F)c1)c1ccc(C(=O)N3CCN(c4cc(C)c(C(=O)O)c(C)n4)CC3(C)C)nc12 (stereo partly drawn) [Example 146, 6-(4-((3S)-1′-(4-chloro-3-fluorophenyl)-3-methoxy-1′,2′-dihydrospiro[cyclopentane-1,3′-pyrrolo[3,2-b]pyridine]-5′-carbonyl)-3,3-dimethylpiperazin-1-yl)-2,4-dimethylnicotinic acid] | < 0.5 µM
CCC1(CC)CN(c2ccc(Cl)c(F)c2)c2ccc(C(=O)N3CCN(c4ccc(CC(=O)O)cn4)CC3(C)C)nc21 [Example 148, 2-(6-(4-(1-(4-chloro-3-fluorophenyl)-3,3-diethyl-2,3-dihydro-1H-pyrrolo[3,2-b]pyridine-5-carbonyl)-3,3-dimethylpiperazin-1-yl)pyridin-3-yl)acetic acid] | < 0.5 µM
CC1(C)CN(c2ccc(C(=O)N3CCN(c4cncc(C(=O)O)c4)CC3(C)C)c(F)c2)c2ccc(C(=O)N3CCN(c4cncc(C(=O)O)c4)CC3(C)C)nc21 [Example 152, 5-(4-(4-(5-(4-(5-carboxypyridin-3-yl)-2,2-dimethylpiperazine-1-carbonyl)-3,3-dimethyl-2,3-dihydro-1H-pyrrolo[3,2-b]pyridin-1-yl)-2-fluorobenzoyl)-3,3-dimethylpiperazin-1-yl)nicotinic acid] | > 10 µM
Cc1cc(N2CCN(C(=O)c3ccc4c(n3)C(C)(C)CN4C3CCC(C(N)=O)CC3)C(C)(C)C2)nc(C)c1C(=O)O (stereo not drawn) [Example 162, 6-(4-(1-(4-carbamoylcyclohexyl)-3,3-dimethyl-2,3-dihydro-1H-pyrrolo[3,2-b]pyridine-5-carbonyl)-3,3-dimethylpiperazin-1-yl)-2,4-dimethylnicotinic acid] | 0.5 to 10 µM
CC1(C)CN(C2CCC(F)(F)CC2)c2ccc(C(=O)N3CCN(c4ccc(CC(=O)O)cn4)CC3(C)C)nc21 [Example 164, 2-(6-(4-(1-(4,4-difluorocyclohexyl)-3,3-dimethyl-2,3-dihydro-1H-pyrrolo[3,2-b]pyridine-5-carbonyl)-3,3-dimethylpiperazin-1-yl)pyridin-3-yl)acetic acid] | < 0.5 µM

Now from value to compound:

IC50 | Compound
< 0.5 µM | Cc1ccc(N2CCN(C(=O)c3ccc4c(n3)C(C)(C)CN4c3ccc(Cl)c(F)c3)C(C)(C)C2)nc1C(=O)O [Example 140, 6-(4-(1-(4-chloro-3-fluorophenyl)-3,3-dimethyl-2,3-dihydro-1H-pyrrolo[3,2-b]pyridine-5-carbonyl)-3,3-dimethylpiperazin-1-yl)-3-methylpicolinic acid]
< 0.5 µM | CC1(C)CN(c2ccc(Cl)c(F)c2)c2ccc(C(=O)N3CCN(c4cncc(C(=O)O)c4)CC3(C)C)nc21 [Example 151, 5-(4-(1-(4-chloro-3-fluorophenyl)-3,3-dimethyl-2,3-dihydro-1H-pyrrolo[3,2-b]pyridine-5-carbonyl)-3,3-dimethylpiperazin-1-yl)nicotinic acid]
< 0.5 µM | CC1CC2(C1)CN(c1ccc(Cl)c(F)c1)c1ccc(C(=O)N3CCN(c4ccc(CC(=O)O)cn4)CC3(C)C)nc12 (stereo not drawn) [Example 154, 2-(6-(4-(1′-(4-chloro-3-fluorophenyl)-3-methyl-1′,2′-dihydrospiro[cyclobutane-1,3′-pyrrolo[3,2-b]pyridine]-5′-carbonyl)-3,3-dimethylpiperazin-1-yl)pyridin-3-yl)acetic acid]
< 0.5 µM | CC(C(=O)O)c1ccc(N2CCN(C(=O)c3ccc4c(n3)C(C)(C)CN4c3ccc(Cl)c(F)c3)C(C)(C)C2)nc1 (stereo not drawn) [Example 160, 2-(6-(4-(1-(4-chloro-3-fluorophenyl)-3,3-dimethyl-2,3-dihydro-1H-pyrrolo[3,2-b]pyridine-5-carbonyl)-3,3-dimethylpiperazin-1-yl)pyridin-3-yl)propanoic acid]
0.5 to 10 µM | Cc1cc(C)nc(N2CCN(C(=O)c3ccc4c(n3)C(C)(C)CN4C3CCC(C#N)CC3)C(C)(C)C2)c1 (stereo not drawn) [Example 165, 4-(5-(4-(4,6-dimethylpyridin-2-yl)-2,2-dimethylpiperazine-1-carbonyl)-3,3-dimethyl-2,3-dihydro-1H-pyrrolo[3,2-b]pyridin-1-yl)cyclohexane-1-carbonitrile]
